Test results from patent publication US20020111274A1, “1-alkyl-3-[1-(substituted phenyl) benzotriazol-6-yl] uracils” (BASF Aktiengesellschaft, priority 2000, published 2002).

Experiments:
Set-up in all cases: scale not given here
[1] = system: ORYSAT Rice, Tebonnet; experiment: Postemergence herbicidal evaluation, ORYSAT; assay type: in vivo, Oryza sativa, (L.); conditions: postemergence spray, rated about two-three weeks after treatment
Summary of the method: (§1)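 Visual injury rating ~2–3 wk post-spray; replicate tests averaged. Two-week-old seedlings; foliar spray at 40 psi; 0.006–0.400 kg ai/ha in 80/20 acetone/water + 1.0% methylated seed oil.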

[2] = system: TRZAWR Wheat, Winter, cv Riband; experiment: Preemergence herbicidal evaluation, TRZAWR; assay type: in vivo, Triticum aestivum; conditions: preemergence
Summary of the method: (§2)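 Visual ratings were taken four to five weeks after application. Before that, cups sown with seed in potting soil received a spray of compound dissolved in aqueous acetone, equivalent to about 0.013 to 0.800 kg/ha, and stood on greenhouse benches under conventional care.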

[3] = system: ABUTH Velvetleaf; experiment: Preemergence herbicidal evaluation, ABUTH; assay type: in vivo, Abutilon theophrasti, Medic.; conditions: preemergence
Summary of the method: as §2

[4] = system: ECHOG Barnyardgrass; experiment: Postemergence herbicidal evaluation, ECHOG; assay type: in vivo, Echinochloa crus-galli, (L.) Beau; conditions: postemergence spray, rated about two-three weeks after treatment
Summary of the method: as §1

[5] = system: TRZAWR Wheat, Winter, cv Riband; experiment: Postemergence herbicidal evaluation, TRZAWR; assay type: in vivo, Triticum aestivum; conditions: postemergence spray, rated about two-three weeks after treatment
Summary of the method: as §1

[6] = system: ECHOG Barnyardgrass; experiment: Preemergence herbicidal evaluation, ECHOG; assay type: in vivo, Echinochloa crus-galli, (L.) Beau; conditions: preemergence
Summary of the method: as §2

[7] = system: GLXMAW Soybean, Williams; experiment: Preemergence herbicidal evaluation, GLXMAW; assay type: in vivo, Glycine max, (L.) Merr. cv Williams; conditions: preemergence
Summary of the method: as §2

[8] = system: AMBEL Ragweed, Common; experiment: Preemergence herbicidal evaluation, AMBEL; assay type: in vivo, Ambrosia artemisifolia, L.; conditions: preemergence
Summary of the method: as §2

[9] = system: SETVI Foxtail, Green; experiment: Preemergence herbicidal evaluation, SETVI; assay type: in vivo, Setaria viridis, (L.) Beau; conditions: preemergence
Summary of the method: as §2

[10] = system: SETVI Foxtail, Green; experiment: Postemergence herbicidal evaluation, SETVI; assay type: in vivo, Setaria viridis, (L.) Beau; conditions: postemergence spray, rated about two-three weeks after treatment
Summary of the method: as §1

[11] = system: ZEAMX Corn, Field; experiment: Postemergence herbicidal evaluation, ZEAMX; assay type: in vivo, Zea mays, L. (Sammel-Bezeichnung); conditions: postemergence spray, rated about two-three weeks after treatment
Summary of the method: as §1

[12] = system: IPOHE Morningglory, Ivyleaf; experiment: Preemergence herbicidal evaluation, IPOHE; assay type: in vivo, Ipomoea hederacea, (L.) Jacq.; conditions: preemergence
Summary of the method: as §2

[13] = system: CHEAL Lambsquarters, Common; experiment: Preemergence herbicidal evaluation, CHEAL; assay type: in vivo, Chenopodium album, L.; conditions: preemergence
Summary of the method: as §2

[14] = system: ZEAMX Corn, Field; experiment: Preemergence herbicidal evaluation, ZEAMX; assay type: in vivo, Zea mays, L. (Sammel-Bezeichnung); conditions: preemergence
Summary of the method: as §2

[15] = system: IPOHE Morningglory, Ivyleaf; experiment: Postemergence herbicidal evaluation, IPOHE; assay type: in vivo, Ipomoea hederacea, (L.) Jacq.; conditions: postemergence spray, rated about two-three weeks after treatment
Summary of the method: as §1

[16] = system: GALAP Galium; experiment: Preemergence herbicidal evaluation, GALAP; assay type: in vivo, Galium aparine; conditions: preemergence
Summary of the method: as §2

[17] = system: AMBEL Ragweed, Common; experiment: Postemergence herbicidal evaluation, AMBEL; assay type: in vivo, Ambrosia artemisifolia, L.; conditions: postemergence spray, rated about two-three weeks after treatment
Summary of the method: as §1

[18] = system: GALAP Galium; experiment: Postemergence herbicidal evaluation, GALAP; assay type: in vivo, Galium aparine; conditions: postemergence spray, rated about two-three weeks after treatment
Summary of the method: as §1

[19] = system: ORYSAT Rice, Tebonnet; experiment: Preemergence herbicidal evaluation, ORYSAT; assay type: in vivo, Oryza sativa, (L.); conditions: preemergence
Summary of the method: as §2

[20] = system: CASOB Sicklepod; experiment: Postemergence herbicidal evaluation, CASOB; assay type: in vivo, Cassia obtusifolia, L.; conditions: postemergence spray, rated about two-three weeks after treatment
Summary of the method: as §1

[21] = system: GLXMAW Soybean, Williams; experiment: Postemergence herbicidal evaluation, GLXMAW; assay type: in vivo, Glycine max, (L.) Merr. cv Williams; conditions: postemergence spray, rated about two-three weeks after treatment
Summary of the method: as §1

[22] = system: CHEAL Lambsquarters, Common; experiment: Postemergence herbicidal evaluation, CHEAL; assay type: in vivo, Chenopodium album, L.; conditions: postemergence spray, rated about two-three weeks after treatment
Summary of the method: as §1

[23] = system: CASOB Sicklepod; experiment: Preemergence herbicidal evaluation, CASOB; assay type: in vivo, Cassia obtusifolia, L.; conditions: preemergence
Summary of the method: as §2

[24] = system: ABUTH Velvetleaf; experiment: Postemergence herbicidal evaluation, ABUTH; assay type: in vivo, Abutilon theophrasti, Medic.; conditions: postemergence spray, rated about two-three weeks after treatment
Summary of the method: as §1

SMILES: Cc1ccc(O)cc1-n1nnc2cc(F)c(-n3c(=O)cc(C(F)(F)F)n(C)c3=O)cc21 [Example 32]
- Postemergence herbicidal rating ORYSAT ([1]; 0.008 kg/ha): 1.0
- Postemergence herbicidal rating ORYSAT ([1]; 0.016 kg/ha): 1.5
- Postemergence herbicidal rating ORYSAT ([1]; 0.032 kg/ha): 1.5
- Postemergence herbicidal rating ORYSAT ([1]; 0.062 kg/ha): 2.0
- TRZAWR herbicidal rating ([2]; rate 0.016 kg/ha): 0.0
- TRZAWR herbicidal rating ([2]; rate 0.032 kg/ha): 0.0
- TRZAWR herbicidal rating ([2]; rate 0.062 kg/ha): 0.0
- TRZAWR herbicidal rating ([2]; rate 0.125 kg/ha): 0.0
- ABUTH herbicidal rating ([3]; rate 0.016 kg/ha): 0.0
- ABUTH herbicidal rating ([3]; rate 0.032 kg/ha): 0.0
- ABUTH herbicidal rating ([3]; rate 0.062 kg/ha): 0.0
- ABUTH herbicidal rating ([3]; rate 0.125 kg/ha): 4.0
- Postemergence herbicidal rating ECHCG ([4]; 0.008 kg/ha): 0.0
- Postemergence herbicidal rating ECHCG ([4]; 0.016 kg/ha): 0.0
- Postemergence herbicidal rating ECHCG ([4]; 0.032 kg/ha): 0.0
- Postemergence herbicidal rating ECHCG ([4]; 0.062 kg/ha): 0.0
- Postemergence herbicidal rating TRZAWR ([5]; 0.008 kg/ha): 1.0
- Postemergence herbicidal rating TRZAWR ([5]; 0.016 kg/ha): 2.5
- Postemergence herbicidal rating TRZAWR ([5]; 0.032 kg/ha): 2.5
- Postemergence herbicidal rating TRZAWR ([5]; 0.062 kg/ha): 3.0
- ECHCG herbicidal rating ([6]; rate 0.016 kg/ha): 0.0
- ECHCG herbicidal rating ([6]; rate 0.032 kg/ha): 0.0
- ECHCG herbicidal rating ([6]; rate 0.062 kg/ha): 0.0
- ECHCG herbicidal rating ([6]; rate 0.125 kg/ha): 0.0
- GLXMAW herbicidal rating ([7]; rate 0.016 kg/ha): 0.0
- GLXMAW herbicidal rating ([7]; rate 0.032 kg/ha): 0.0
- GLXMAW herbicidal rating ([7]; rate 0.062 kg/ha): 0.0
- GLXMAW herbicidal rating ([7]; rate 0.125 kg/ha): 1.0
- AMBEL herbicidal rating ([8]; rate 0.016 kg/ha): 0.0
- AMBEL herbicidal rating ([8]; rate 0.032 kg/ha): 0.0
- AMBEL herbicidal rating ([8]; rate 0.062 kg/ha): 0.0
- AMBEL herbicidal rating ([8]; rate 0.125 kg/ha): 0.0
- SETVI herbicidal rating ([9]; rate 0.016 kg/ha): 0.0
- SETVI herbicidal rating ([9]; rate 0.032 kg/ha): 0.0
- SETVI herbicidal rating ([9]; rate 0.062 kg/ha): 0.0
- SETVI herbicidal rating ([9]; rate 0.125 kg/ha): 0.0
- Postemergence herbicidal rating SETVI ([10]; 0.008 kg/ha): 0.0
- Postemergence herbicidal rating SETVI ([10]; 0.016 kg/ha): 0.0
- Postemergence herbicidal rating SETVI ([10]; 0.032 kg/ha): 0.0
- Postemergence herbicidal rating SETVI ([10]; 0.062 kg/ha): 0.0
- Postemergence herbicidal rating ZEAMX ([11]; 0.008 kg/ha): 2.0
- Postemergence herbicidal rating ZEAMX ([11]; 0.016 kg/ha): 2.5
- Postemergence herbicidal rating ZEAMX ([11]; 0.032 kg/ha): 2.5
- Postemergence herbicidal rating ZEAMX ([11]; 0.062 kg/ha): 2.5
- IPOHE herbicidal rating ([12]; rate 0.016 kg/ha): 0.0
- IPOHE herbicidal rating ([12]; rate 0.032 kg/ha): 0.0
- IPOHE herbicidal rating ([12]; rate 0.062 kg/ha): 0.0
- IPOHE herbicidal rating ([12]; rate 0.125 kg/ha): 0.0
- CHEAL herbicidal rating ([13]; rate 0.016 kg/ha): 0.0
- CHEAL herbicidal rating ([13]; rate 0.032 kg/ha): 0.0
- CHEAL herbicidal rating ([13]; rate 0.062 kg/ha): 0.0
- CHEAL herbicidal rating ([13]; rate 0.125 kg/ha): 6.0
- ZEAMX herbicidal rating ([14]; rate 0.016 kg/ha): 0.0
- ZEAMX herbicidal rating ([14]; rate 0.032 kg/ha): 0.0
- ZEAMX herbicidal rating ([14]; rate 0.062 kg/ha): 0.0
- ZEAMX herbicidal rating ([14]; rate 0.125 kg/ha): 1.0
- Postemergence herbicidal rating IPOHE ([15]; 0.008 kg/ha): 0.0
- Postemergence herbicidal rating IPOHE ([15]; 0.016 kg/ha): 0.0
- Postemergence herbicidal rating IPOHE ([15]; 0.032 kg/ha): 0.0
- Postemergence herbicidal rating IPOHE ([15]; 0.062 kg/ha): 0.0
- GALAP herbicidal rating ([16]; rate 0.016 kg/ha): 0.0
- GALAP herbicidal rating ([16]; rate 0.032 kg/ha): 0.0
- GALAP herbicidal rating ([16]; rate 0.062 kg/ha): 0.0
- Postemergence herbicidal rating AMBEL ([17]; 0.008 kg/ha): 0.0
- Postemergence herbicidal rating AMBEL ([17]; 0.016 kg/ha): 0.0
- Postemergence herbicidal rating AMBEL ([17]; 0.032 kg/ha): 0.0
- Postemergence herbicidal rating AMBEL ([17]; 0.062 kg/ha): 0.0
- Postemergence herbicidal rating GALAP ([18]; 0.008 kg/ha): 0.0
- Postemergence herbicidal rating GALAP ([18]; 0.016 kg/ha): 0.0
- Postemergence herbicidal rating GALAP ([18]; 0.032 kg/ha): 0.0
- Postemergence herbicidal rating GALAP ([18]; 0.062 kg/ha): 0.0
- ORYSAT herbicidal rating ([19]; rate 0.016 kg/ha): 0.0
- ORYSAT herbicidal rating ([19]; rate 0.032 kg/ha): 0.0
- ORYSAT herbicidal rating ([19]; rate 0.062 kg/ha): 0.0
- ORYSAT herbicidal rating ([19]; rate 0.125 kg/ha): 0.0
- Postemergence herbicidal rating CASOB ([20]; 0.008 kg/ha): 0.0
- Postemergence herbicidal rating CASOB ([20]; 0.016 kg/ha): 0.0
- Postemergence herbicidal rating CASOB ([20]; 0.032 kg/ha): 0.0
- Postemergence herbicidal rating CASOB ([20]; 0.062 kg/ha): 0.0
- Postemergence herbicidal rating GLXMAW ([21]; 0.008 kg/ha): 2.0
- Postemergence herbicidal rating GLXMAW ([21]; 0.016 kg/ha): 2.5
- Postemergence herbicidal rating GLXMAW ([21]; 0.032 kg/ha): 3.0
- Postemergence herbicidal rating GLXMAW ([21]; 0.062 kg/ha): 3.0
- Postemergence herbicidal rating CHEAL ([22]; 0.008 kg/ha): 0.0
- Postemergence herbicidal rating CHEAL ([22]; 0.016 kg/ha): 0.0
- Postemergence herbicidal rating CHEAL ([22]; 0.032 kg/ha): 0.0
- Postemergence herbicidal rating CHEAL ([22]; 0.062 kg/ha): 0.0
- CASOB herbicidal rating ([23]; rate 0.016 kg/ha): 0.0
- CASOB herbicidal rating ([23]; rate 0.032 kg/ha): 0.0
- CASOB herbicidal rating ([23]; rate 0.062 kg/ha): 0.0
- CASOB herbicidal rating ([23]; rate 0.125 kg/ha): 0.0
- Postemergence herbicidal rating ABUTH ([24]; 0.008 kg/ha): 0.0
- Postemergence herbicidal rating ABUTH ([24]; 0.016 kg/ha): 0.0
- Postemergence herbicidal rating ABUTH ([24]; 0.032 kg/ha): 0.0
- Postemergence herbicidal rating ABUTH ([24]; 0.062 kg/ha): 4.0
